Key:
[1] = biological target: Proto-oncogene tyrosine-protein kinase receptor Ret (Homo sapiens) (UniProt P07949); assay: Inhibition of RET (unknown origin) at 100 nM incubated for 1 hr in presence of ATP by ELISA analysis relative to control
OCI-Ly10 = assay: Induction of apoptosis in human OCILY10 cells assessed as late apoptotic cells at 0.1 uM incubated for 48 hrs by Annexin V-FITC/PI staining based flow cytometry (reference value: 3.54 %); format: functional

Chain of Proto-oncogene tyrosine-protein kinase receptor Ret (Homo sapiens) (P07949 whole entry): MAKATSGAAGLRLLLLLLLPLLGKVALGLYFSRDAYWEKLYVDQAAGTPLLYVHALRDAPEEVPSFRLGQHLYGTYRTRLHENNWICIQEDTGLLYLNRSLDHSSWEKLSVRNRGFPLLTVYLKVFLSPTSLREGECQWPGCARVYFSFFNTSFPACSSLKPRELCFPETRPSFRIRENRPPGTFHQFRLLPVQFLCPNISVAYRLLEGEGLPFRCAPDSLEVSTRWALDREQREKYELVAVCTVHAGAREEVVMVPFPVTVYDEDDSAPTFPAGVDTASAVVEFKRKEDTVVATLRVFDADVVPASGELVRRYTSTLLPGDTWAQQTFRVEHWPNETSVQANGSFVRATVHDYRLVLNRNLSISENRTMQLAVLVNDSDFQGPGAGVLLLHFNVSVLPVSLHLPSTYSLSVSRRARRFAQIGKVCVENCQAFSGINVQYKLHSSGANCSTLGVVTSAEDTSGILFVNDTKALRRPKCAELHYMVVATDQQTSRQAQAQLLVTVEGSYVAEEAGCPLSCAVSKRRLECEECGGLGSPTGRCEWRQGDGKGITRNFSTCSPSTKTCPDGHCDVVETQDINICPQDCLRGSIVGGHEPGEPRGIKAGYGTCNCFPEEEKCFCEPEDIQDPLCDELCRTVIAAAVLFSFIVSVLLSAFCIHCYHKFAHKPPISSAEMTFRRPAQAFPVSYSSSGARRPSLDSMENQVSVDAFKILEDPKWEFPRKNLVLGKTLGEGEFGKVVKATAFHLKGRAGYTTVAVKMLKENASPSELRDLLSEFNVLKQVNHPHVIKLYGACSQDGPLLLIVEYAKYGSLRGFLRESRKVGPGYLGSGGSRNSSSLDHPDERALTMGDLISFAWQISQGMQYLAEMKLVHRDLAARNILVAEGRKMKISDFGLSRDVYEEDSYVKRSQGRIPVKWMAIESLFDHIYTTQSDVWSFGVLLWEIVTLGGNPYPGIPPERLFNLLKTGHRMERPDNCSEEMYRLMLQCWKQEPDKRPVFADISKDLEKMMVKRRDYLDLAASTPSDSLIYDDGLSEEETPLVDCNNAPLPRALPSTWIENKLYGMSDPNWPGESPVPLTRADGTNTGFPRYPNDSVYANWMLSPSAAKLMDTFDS

Cn1cc(-c2cc3c(cc2NC(=O)c2coc(-c4ccnc(N)c4)n2)CC(C)(C)O3)cn1 gave an inhibition [1] of over 50% and an Activity (OCI-Ly10) of 7.93%.

— ChEMBL document CHEMBL5370531, “Design, synthesis and pharmacological evaluation of 2,3-dihydrobenzofuran IRAK4 inhibitors for the treatment of diffuse large B-cell lymphoma” (Eur J Med Chem, 2023)
